# Measured values from the kinase profiling compilation of Christmann-Franck et al. (2016).
# What was measured:
# Assay in all cases: KINOMEscan competition binding
# Conditions in all cases: compound 10.0 µM
# MAP2K2 (human) = MAP2K2 (human) (UniProt P36507)
# PRKAA1 (human) = PRKAA1 (human) (UniProt Q13131)
# TNK1 (human) = TNK1 (human) (UniProt Q13470)
# MAPK15 (human) = MAPK15 (human) (UniProt Q8TD08)
# MARK2 (human) = MARK2 (human) (UniProt Q7KZI7)
# DDR2 (human) = DDR2 (human) (UniProt Q16832)
# DDR2 (human), sequence (Q16832 whole entry, looked up): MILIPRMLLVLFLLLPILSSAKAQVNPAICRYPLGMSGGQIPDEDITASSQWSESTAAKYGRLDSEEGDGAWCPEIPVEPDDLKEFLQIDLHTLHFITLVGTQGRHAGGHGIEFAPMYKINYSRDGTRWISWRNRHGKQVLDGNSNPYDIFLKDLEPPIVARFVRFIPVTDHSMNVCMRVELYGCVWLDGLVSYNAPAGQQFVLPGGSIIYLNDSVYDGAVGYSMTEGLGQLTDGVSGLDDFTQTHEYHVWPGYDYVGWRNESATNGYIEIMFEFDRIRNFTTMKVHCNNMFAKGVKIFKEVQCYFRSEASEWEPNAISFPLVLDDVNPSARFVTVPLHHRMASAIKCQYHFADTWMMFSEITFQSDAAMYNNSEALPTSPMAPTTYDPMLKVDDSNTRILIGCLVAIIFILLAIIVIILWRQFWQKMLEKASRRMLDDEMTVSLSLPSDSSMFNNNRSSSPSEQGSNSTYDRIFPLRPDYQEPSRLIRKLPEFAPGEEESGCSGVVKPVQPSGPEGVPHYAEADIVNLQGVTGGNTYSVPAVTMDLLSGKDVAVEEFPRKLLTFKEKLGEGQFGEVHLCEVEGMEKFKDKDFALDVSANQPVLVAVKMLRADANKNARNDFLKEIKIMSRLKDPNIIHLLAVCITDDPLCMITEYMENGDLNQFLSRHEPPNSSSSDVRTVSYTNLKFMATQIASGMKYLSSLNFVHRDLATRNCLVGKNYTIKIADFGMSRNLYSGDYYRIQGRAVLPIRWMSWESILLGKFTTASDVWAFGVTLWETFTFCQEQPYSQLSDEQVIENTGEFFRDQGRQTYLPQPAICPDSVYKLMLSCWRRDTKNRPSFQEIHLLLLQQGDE
# DYRK1B (human) = DYRK1B (human) (UniProt Q9Y463)
# RPS6KA1 KD1 (human) = RPS6KA1 KD1 (human) (UniProt Q15418)
# LATS2 (human) = LATS2 (human) (UniProt Q9NRM7)
# PIK3CD (human) = PIK3CD (human) (UniProt O00329)
# STK3 (human) = STK3 (human) (UniProt Q13188)
# BMPR1B (human) = BMPR1B (human) (UniProt O00238)
# NEK6 (human) = NEK6 (human) (UniProt Q9HC98)
# NEK6 (human), sequence (Q9HC98 whole entry, looked up): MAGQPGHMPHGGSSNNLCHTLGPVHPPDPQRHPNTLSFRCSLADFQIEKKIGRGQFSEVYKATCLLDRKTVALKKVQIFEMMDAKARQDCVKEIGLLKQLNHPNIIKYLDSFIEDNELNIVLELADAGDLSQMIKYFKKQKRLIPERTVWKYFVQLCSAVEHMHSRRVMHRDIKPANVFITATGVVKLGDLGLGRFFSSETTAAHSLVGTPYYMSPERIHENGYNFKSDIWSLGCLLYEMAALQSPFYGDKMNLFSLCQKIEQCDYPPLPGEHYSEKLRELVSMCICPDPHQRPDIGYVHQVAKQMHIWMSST
# NUAK2 (human) = NUAK2 (human) (UniProt Q9H093)
# MAP2K1 (human) = MAP2K1 (human) (UniProt Q02750)
# MAPK1 (human) = MAPK1 (human) (UniProt P28482)
# CDC42BPA (human) = CDC42BPA (human) (UniProt Q5VT25)
# NTRK3 (human) = NTRK3 (human) (UniProt Q16288)
# NTRK3 (human), sequence (Q16288 whole entry, looked up): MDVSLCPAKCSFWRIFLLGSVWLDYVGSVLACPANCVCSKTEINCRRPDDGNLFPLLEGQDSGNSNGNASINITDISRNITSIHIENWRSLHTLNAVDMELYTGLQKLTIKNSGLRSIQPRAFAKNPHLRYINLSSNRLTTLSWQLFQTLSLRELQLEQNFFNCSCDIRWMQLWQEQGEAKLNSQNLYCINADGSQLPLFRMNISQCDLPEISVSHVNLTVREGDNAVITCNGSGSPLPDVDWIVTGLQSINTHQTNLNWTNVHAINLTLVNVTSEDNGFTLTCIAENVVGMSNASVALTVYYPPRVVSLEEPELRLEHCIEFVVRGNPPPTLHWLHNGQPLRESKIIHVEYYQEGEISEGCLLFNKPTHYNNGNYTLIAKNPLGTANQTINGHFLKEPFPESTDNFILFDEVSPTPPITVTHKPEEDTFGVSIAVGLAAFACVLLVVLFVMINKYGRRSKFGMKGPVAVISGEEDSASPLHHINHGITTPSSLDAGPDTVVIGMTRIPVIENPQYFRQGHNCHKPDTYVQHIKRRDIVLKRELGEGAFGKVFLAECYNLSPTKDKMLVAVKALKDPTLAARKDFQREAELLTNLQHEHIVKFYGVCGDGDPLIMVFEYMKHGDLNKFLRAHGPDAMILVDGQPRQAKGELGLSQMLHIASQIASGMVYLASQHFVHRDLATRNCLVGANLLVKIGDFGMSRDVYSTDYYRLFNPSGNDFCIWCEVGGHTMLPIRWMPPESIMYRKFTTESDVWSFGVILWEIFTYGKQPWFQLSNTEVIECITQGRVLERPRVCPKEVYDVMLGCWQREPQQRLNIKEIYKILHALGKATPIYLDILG
# AURKB (human) = AURKB (human) (UniProt Q96GD4)
# CAMK1G (human) = CAMK1G (human) (UniProt Q96NX5)
# CAMK1G (human), sequence (Q96NX5 whole entry, looked up): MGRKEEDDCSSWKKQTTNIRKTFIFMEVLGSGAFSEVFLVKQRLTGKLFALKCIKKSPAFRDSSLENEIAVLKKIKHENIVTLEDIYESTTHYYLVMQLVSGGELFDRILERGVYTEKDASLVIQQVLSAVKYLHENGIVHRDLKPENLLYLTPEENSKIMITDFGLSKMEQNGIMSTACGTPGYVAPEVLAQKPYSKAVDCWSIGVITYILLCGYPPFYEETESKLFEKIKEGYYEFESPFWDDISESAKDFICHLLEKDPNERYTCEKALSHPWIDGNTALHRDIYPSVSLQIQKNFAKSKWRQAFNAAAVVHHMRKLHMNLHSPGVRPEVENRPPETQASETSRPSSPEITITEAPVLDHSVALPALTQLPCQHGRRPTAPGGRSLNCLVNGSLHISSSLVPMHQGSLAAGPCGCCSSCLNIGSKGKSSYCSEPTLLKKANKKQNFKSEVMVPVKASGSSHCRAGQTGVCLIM
# PAK6 (human) = PAK6 (human) (UniProt Q9NQU5)
# CHUK (human) = CHUK (human) (UniProt O15111)
# TNIK (human) = TNIK (human) (UniProt Q9UKE5)
# PAK1 (human) = PAK1 (human) (UniProt Q13153)
# PAK1 (human), sequence (Q13153 whole entry, looked up): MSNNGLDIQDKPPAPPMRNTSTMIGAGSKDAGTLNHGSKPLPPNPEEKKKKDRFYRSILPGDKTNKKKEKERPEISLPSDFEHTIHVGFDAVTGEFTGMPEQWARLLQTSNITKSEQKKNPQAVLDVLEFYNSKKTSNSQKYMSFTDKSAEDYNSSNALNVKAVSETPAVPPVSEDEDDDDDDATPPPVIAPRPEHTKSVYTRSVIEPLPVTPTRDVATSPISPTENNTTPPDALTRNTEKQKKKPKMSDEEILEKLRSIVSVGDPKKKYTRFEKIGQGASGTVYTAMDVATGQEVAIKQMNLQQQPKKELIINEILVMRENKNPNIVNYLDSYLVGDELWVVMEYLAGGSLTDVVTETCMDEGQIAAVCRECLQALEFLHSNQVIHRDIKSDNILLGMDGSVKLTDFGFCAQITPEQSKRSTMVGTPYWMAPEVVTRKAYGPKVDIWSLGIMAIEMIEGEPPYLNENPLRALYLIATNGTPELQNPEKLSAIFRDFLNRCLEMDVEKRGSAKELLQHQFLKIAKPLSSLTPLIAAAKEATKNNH
# MAP2K6 (human) = MAP2K6 (human) (UniProt P52564)
# ZAP70 (human) = ZAP70 (human) (UniProt P43403)
# [1] = system: FLT3 (human), P36888 [D835Y]
# FES (human) = FES (human) (UniProt P07332)
# FER (human) = FER (human) (UniProt P16591)
# BLK (human) = BLK (human) (UniProt P51451)
# MAPK3 (human) = MAPK3 (human) (UniProt P27361)
# PRKX (human) = PRKX (human) (UniProt P51817)
# LIMK2 (human) = LIMK2 (human) (UniProt P53671)
# LIMK2 (human), sequence (P53671 whole entry, looked up): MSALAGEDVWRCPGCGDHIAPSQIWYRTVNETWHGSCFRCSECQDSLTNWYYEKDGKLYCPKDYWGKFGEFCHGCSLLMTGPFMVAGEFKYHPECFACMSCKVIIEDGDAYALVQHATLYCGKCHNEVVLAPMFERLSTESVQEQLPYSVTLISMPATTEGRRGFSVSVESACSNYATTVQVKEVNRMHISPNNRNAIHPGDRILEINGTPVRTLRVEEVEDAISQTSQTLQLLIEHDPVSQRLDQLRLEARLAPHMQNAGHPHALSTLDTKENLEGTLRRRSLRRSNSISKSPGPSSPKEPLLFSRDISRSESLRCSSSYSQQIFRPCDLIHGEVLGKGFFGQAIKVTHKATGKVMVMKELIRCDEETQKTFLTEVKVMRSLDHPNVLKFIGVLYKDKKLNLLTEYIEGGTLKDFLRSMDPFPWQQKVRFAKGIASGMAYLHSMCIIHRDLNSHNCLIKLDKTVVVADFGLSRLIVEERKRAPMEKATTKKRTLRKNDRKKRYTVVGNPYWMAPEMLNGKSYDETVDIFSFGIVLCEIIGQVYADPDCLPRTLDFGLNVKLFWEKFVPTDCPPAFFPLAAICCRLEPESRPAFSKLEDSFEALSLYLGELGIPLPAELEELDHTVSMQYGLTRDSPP
# NEK9 (human) = NEK9 (human) (UniProt Q8TD19)
# NEK9 (human), sequence (Q8TD19 whole entry, looked up): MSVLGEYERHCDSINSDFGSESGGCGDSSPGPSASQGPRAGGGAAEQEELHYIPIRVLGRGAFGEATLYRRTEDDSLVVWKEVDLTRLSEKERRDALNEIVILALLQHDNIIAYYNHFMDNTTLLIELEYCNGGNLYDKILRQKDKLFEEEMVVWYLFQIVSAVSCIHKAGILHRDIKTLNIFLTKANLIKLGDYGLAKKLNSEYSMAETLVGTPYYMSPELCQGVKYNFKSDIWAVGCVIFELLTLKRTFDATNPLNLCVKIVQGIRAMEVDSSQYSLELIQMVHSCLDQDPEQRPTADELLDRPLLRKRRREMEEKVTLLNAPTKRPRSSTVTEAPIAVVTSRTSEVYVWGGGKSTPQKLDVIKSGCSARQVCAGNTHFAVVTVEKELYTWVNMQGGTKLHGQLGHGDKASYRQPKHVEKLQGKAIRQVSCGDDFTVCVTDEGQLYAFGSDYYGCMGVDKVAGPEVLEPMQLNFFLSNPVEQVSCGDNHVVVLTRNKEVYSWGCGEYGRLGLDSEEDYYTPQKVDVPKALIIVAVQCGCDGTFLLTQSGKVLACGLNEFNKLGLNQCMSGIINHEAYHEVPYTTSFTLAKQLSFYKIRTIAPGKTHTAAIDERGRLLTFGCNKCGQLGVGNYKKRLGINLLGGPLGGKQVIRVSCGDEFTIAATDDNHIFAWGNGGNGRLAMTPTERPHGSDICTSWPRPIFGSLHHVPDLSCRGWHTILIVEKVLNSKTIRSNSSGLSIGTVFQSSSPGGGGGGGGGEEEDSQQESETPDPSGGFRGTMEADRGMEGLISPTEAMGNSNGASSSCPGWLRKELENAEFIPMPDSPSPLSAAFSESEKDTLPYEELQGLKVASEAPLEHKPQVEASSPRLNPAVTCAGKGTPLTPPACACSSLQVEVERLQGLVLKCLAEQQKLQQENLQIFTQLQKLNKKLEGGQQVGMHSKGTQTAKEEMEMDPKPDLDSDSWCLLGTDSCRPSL
# EPHA4 (human) = EPHA4 (human) (UniProt P54764)
# AKT2 (human) = AKT2 (human) (UniProt P31751)
# ICK (human) = ICK (human) (UniProt Q9UPZ9)
# ERN1 (human) = ERN1 (human) (UniProt O75460)
# MAP2K2 (human), sequence (P36507 whole entry, looked up): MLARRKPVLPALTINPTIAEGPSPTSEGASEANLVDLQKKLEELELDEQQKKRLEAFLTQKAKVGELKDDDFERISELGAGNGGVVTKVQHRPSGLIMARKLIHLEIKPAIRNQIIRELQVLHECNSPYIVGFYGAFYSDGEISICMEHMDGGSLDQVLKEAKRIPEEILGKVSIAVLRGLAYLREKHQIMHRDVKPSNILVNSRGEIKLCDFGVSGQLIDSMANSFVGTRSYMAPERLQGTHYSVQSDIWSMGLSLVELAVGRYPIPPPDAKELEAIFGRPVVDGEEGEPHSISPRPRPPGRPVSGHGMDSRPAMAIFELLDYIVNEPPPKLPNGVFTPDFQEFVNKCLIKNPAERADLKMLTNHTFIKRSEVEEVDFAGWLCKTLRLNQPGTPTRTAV
"kinase still bound, per cent of control (MAP2K2 (human)) [%]","kinase still bound, per cent of control (PRKAA1 (human)) [%]","kinase still bound, per cent of control (TNK1 (human)) [%]","kinase still bound, per cent of control (MARK2 (human)) [%]","kinase still bound, per cent of control (DDR2 (human)) [%]","kinase still bound, per cent of control (DYRK1B (human)) [%]","kinase still bound, per cent of control (RPS6KA1 KD1 (human)) [%]","kinase still bound, per cent of control (LATS2 (human)) [%]","kinase still bound, per cent of control (STK3 (human)) [%]","kinase still bound, per cent of control (BMPR1B (human)) [%]","kinase still bound, per cent of control (NEK6 (human)) [%]","kinase still bound, per cent of control (NUAK2 (human)) [%]","kinase still bound, per cent of control (MAP2K1 (human)) [%]","kinase still bound, per cent of control (MAPK1 (human)) [%]","kinase still bound, per cent of control (CDC42BPA (human)) [%]","kinase still bound, per cent of control (NTRK3 (human)) [%]","kinase still bound, per cent of control (AURKB (human)) [%]","kinase still bound, per cent of control (CAMK1G (human)) [%]","kinase still bound, per cent of control (PAK6 (human)) [%]",Structure (SMILES),"kinase still bound, per cent of control (MAPK15 (human)) [%]",further results
100,100,3.8,100,100,100,100,100,100,100,100,100,100,26,100,100,100,100,100,COc1cc(N2CCC(C(N)=O)CC2)ccc1Nc1nc(N)c(Cl)c(Nc2ccccc2S(=O)(=O)C(C)C)n1,100,"kinase still bound, per cent of control (PIK3CD (human)): 100%; kinase still bound, per cent of control (CHUK (human)): 100%; kinase still bound, per cent of control (TNIK (human)): 100%; kinase still bound, per cent of control (PAK1 (human)): 100%; kinase still bound, per cent of control (MAP2K6 (human)): 100%; kinase still bound, per cent of control (ZAP70 (human)): 100%; kinase still bound, per cent of control [1]: 5.2%; kinase still bound, per cent of control (FES (human)): 2.3%; kinase still bound, per cent of control (FER (human)): 0.6%; kinase still bound, per cent of control (BLK (human)): 22%; kinase still bound, per cent of control (MAPK3 (human)): 100%; kinase still bound, per cent of control (PRKX (human)): 100%; kinase still bound, per cent of control (LIMK2 (human)): 100%; kinase still bound, per cent of control (NEK9 (human)): 100%; kinase still bound, per cent of control (EPHA4 (human)): 100%; kinase still bound, per cent of control (AKT2 (human)): 100%"
100,100,7.8,100,100,100,100,100,100,100,100,100,100,100,100,100,100,100,100,CCOc1cc(N2CCC(O)CC2)ccc1Nc1ncc2c(n1)N(C)c1ccccc1C(=O)N2C,100,"kinase still bound, per cent of control (PIK3CD (human)): 100%; kinase still bound, per cent of control (ICK (human)): 100%; kinase still bound, per cent of control (CHUK (human)): 100%; kinase still bound, per cent of control (TNIK (human)): 100%; kinase still bound, per cent of control (PAK1 (human)): 100%; kinase still bound, per cent of control (MAP2K6 (human)): 100%; kinase still bound, per cent of control (ZAP70 (human)): 100%; kinase still bound, per cent of control [1]: 100%; kinase still bound, per cent of control (FES (human)): 100%; kinase still bound, per cent of control (FER (human)): 100%; kinase still bound, per cent of control (ERN1 (human)): 100%; kinase still bound, per cent of control (BLK (human)): 100%; kinase still bound, per cent of control (MAPK3 (human)): 100%; kinase still bound, per cent of control (PRKX (human)): 100%; kinase still bound, per cent of control (LIMK2 (human)): 100%; kinase still bound, per cent of control (NEK9 (human)): 100%; kinase still bound, per cent of control (EPHA4 (human)): 100%; kinase still bound, per cent of control (AKT2 (human)): 100%"
100,100,100,100,100,100,100,100,100,100,34,25,100,100,100,100,100,100,100,COc1cc(C)c(Sc2cnc(NC(=O)c3ccc(CNC(C)C(C)C)cc3)s2)cc1C(=O)N1CCN(C(C)=O)CC1 (centres undefined),100,"kinase still bound, per cent of control (PIK3CD (human)): 100%; kinase still bound, per cent of control (CHUK (human)): 100%; kinase still bound, per cent of control (TNIK (human)): 100%; kinase still bound, per cent of control (PAK1 (human)): 100%; kinase still bound, per cent of control (MAP2K6 (human)): 100%; kinase still bound, per cent of control (ZAP70 (human)): 100%; kinase still bound, per cent of control [1]: 26%; kinase still bound, per cent of control (FES (human)): 100%; kinase still bound, per cent of control (FER (human)): 15%; kinase still bound, per cent of control (BLK (human)): 100%; kinase still bound, per cent of control (MAPK3 (human)): 100%; kinase still bound, per cent of control (PRKX (human)): 100%; kinase still bound, per cent of control (LIMK2 (human)): 100%; kinase still bound, per cent of control (NEK9 (human)): 100%; kinase still bound, per cent of control (EPHA4 (human)): 100%; kinase still bound, per cent of control (AKT2 (human)): 100%"
100,1.6,1.6,100,100,100,100,100,100,100,100,100,100,100,100,13,100,100,100,COc1ccc(N(C(=O)Oc2cc(C(=O)Nc3cccc(C(F)(F)F)c3)ccc2C)c2ccnc(Nc3ccc(N4CCN(C)CC4)cc3)n2)c(OC)c1,100,"kinase still bound, per cent of control (TNIK (human)): 12%; kinase still bound, per cent of control (PAK1 (human)): 100%; kinase still bound, per cent of control (MAP2K6 (human)): 100%; kinase still bound, per cent of control (ZAP70 (human)): 100%; kinase still bound, per cent of control [1]: 100%; kinase still bound, per cent of control (FES (human)): 0.85%; kinase still bound, per cent of control (FER (human)): 4.4%; kinase still bound, per cent of control (BLK (human)): 0.45%; kinase still bound, per cent of control (MAPK3 (human)): 100%; kinase still bound, per cent of control (PRKX (human)): 100%; kinase still bound, per cent of control (LIMK2 (human)): 0%; kinase still bound, per cent of control (NEK9 (human)): 100%; kinase still bound, per cent of control (EPHA4 (human)): 2.4%; kinase still bound, per cent of control (AKT2 (human)): 100%"
